Data reported in US20090023186A1, “USE OF VALPROIC ACID FOR ENHANCING PRODUCTION OF RECOMBINANT PROTEINS IN MAMMALIAN CELLS” (EXCELLGENE SA, priority 2007, published 2009).

Columns and labels:
[1] = system: HEK293E cells; experiment: Combination with IDMTs, IgG batch yield by ELISA (Example 6); assay type: cell-based, Human; details: no addition = 100%, day 5
Experimental: 10 million suspension-adapted HEK293E cells were resuspended in 0.5 ml of Ex-Cell 293 HEK 293 serum-free medium with 4 mmol/l L-glutamine (Cat. No. 14571C-[…]; Lot No. 6A0093; SAFC Biosciences, Lenexa, Kans., USA, “Ex-Cell” medium; note: “Ex-Cell” medium-as used herein-refers to a medium comprising 4 mmol/l L-glutamine) in a 50-ml filter tube each (TPP AG, Trasadingen, Switzerland; Cat. No. 87050, Lot 20050174). In a separate set, 10 million suspension-adapted CHO DG44 cells were resuspended in 0.5 ml of ProCHO5 serum-free medium with 4 mmol/[…] hypoxanthine and 0.194 g/l thymidine (BioWhittaker (Lonza), Belgium; Cat. No. BE12-[…]; Lot No. 7MB0040; “ProCHO5” medium; note: “ProCHO5” medium-as used herein-refers to a medium comprising 4 mmol/[…] hypoxanthine and 0.194 g/l thymidine) in a 50-ml filter tube each (TPP AG, Trasadingen, Switzerland; Cat. No. 87050, Lot 20050174). Then 12.5 μg plasmid DNA at a concentration of 1 μg/μl was added in each tube with the following composition 50% (6.25 μg) p-LC (SEQ ID NO: 1) 50% (6.25 μg) p-HC (SEQ ID NO: 3). Plasmid p-LC comprises the genetic information for the production of the light chain of an IgG antibody, plasmid p-HC comprises the genetic information for the production of the heavy chain of an IgG antibody. The particular vector constructs used in the present invention can also be obtained from the inventors. The inventors can be contacted via e-mail at […]. […] In short, Goat anti-human kappa light chain IgG (Biosource) was used for coating the ELISA-plates, and with AP-conjugated goat anti-human gamma chain IgG (Biosource) the synthesized IgG1 was detected. […] Absorption was measured at 405 nm against 490 nm using a microplate reader (SPECTRAmaxTM340; Molecular Devices, Palo Alto, Calif., USA).

[2] = system: CHO DG44 cells; experiment: as above; assay type: cell-based, Chinese Hamster; details: day 5; for Fold increase in batch yield over control: no addition = 100%; for interaction with VPA in increasing batch yield: CHO cells
Experimental: 10 million suspension-adapted HEK293E cells were resuspended in 0.5 ml of Ex-Cell 293 HEK 293 serum-free medium with 4 mmol/l L-glutamine (Cat. No. 14571C-[…]; Lot No. 6A0093; SAFC Biosciences, Lenexa, Kans., USA, “Ex-Cell” medium; note: “Ex-Cell” medium-as used herein-refers to a medium comprising 4 mmol/l L-glutamine) in a 50-ml filter tube each (TPP AG, Trasadingen, Switzerland; Cat. No. 87050, Lot 20050174). In a separate set, 10 million suspension-adapted CHO DG44 cells were resuspended in 0.5 ml of ProCHO5 serum-free medium with 4 mmol/[…] hypoxanthine and 0.194 g/l thymidine (BioWhittaker (Lonza), Belgium; Cat. No. BE12-[…]; Lot No. 7MB0040; “ProCHO5” medium; note: “ProCHO5” medium-as used herein-refers to a medium comprising 4 mmol/[…] hypoxanthine and 0.194 g/l thymidine) in a 50-ml filter tube each (TPP AG, Trasadingen, Switzerland; Cat. No. 87050, Lot 20050174). Then 12.5 μg plasmid DNA at a concentration of 1 μg/μl was added in each tube with the following composition 50% (6.25 μg) p-LC (SEQ ID NO: 1) 50% (6.25 μg) p-HC (SEQ ID NO: 3). Plasmid p-LC comprises the genetic information for the production of the light chain of an IgG antibody, plasmid p-HC comprises the genetic information for the production of the heavy chain of an IgG antibody. The particular vector constructs used in the present invention can also be obtained from the inventors. The inventors can be contacted via e-mail at […]. Moreover, commercial services do exist that produce any desired nucleotide sequence even comprising several kilobase pairs including complete expression cassettes in plasmid backgrounds (e.g., Invitrogen, Carlsbad, USA; Geneart, Germany.) Thus, providing the genetic sequence information of the plasmids should enable one of ordinary skill in the art to order the plasmids of the present invention at one of the commercial services listed. After shortly mixing the DNA with the cells by gentle shaking, 25 μg of 25-kd linear polyethyleneimine (“PEI”; Polysciences, Eppelheim, Germany; [2]) were added at a concentration of 1 μg/μl to each of the tubes. After shortly mixing by gentle shaking, the filter tubes containing the cells together with the DNA and PEI were transferred into an orbital shaker (Kühner Shaker Cabinet ISF-4-W, “Kühner shaker”, Kühner AG, Birsfelden, Switzerland), and the cells were incubated for 4 hours at 37° C. in a 5% CO2 atmosphere under shaking at 180 rpm. After that time, 4.5 ml of Ex-Cell medium were added to each of the filter tubes containing HEK 293 cells and 4.5 ml of Pro-CHO5 were added to each of the filter tubes containing CHO DG44 cells. Then, valproic acid was added to each of the tubes at the corresponding final concentration. In addition, the following chemicals were added to the corresponding tubes at a final concentration of: […] Azacytidine was purchased from Sigma-Aldrich Chemie GmbH, Industriestrasse 25, CH-9471 Buchs SG, Catalog Number A1287-1 VL. RG108 was purchased from Sigma-Aldrich Chemie GmbH, Industriestrasse 25, CH-9471 Buchs SG, Catalog Number R8279-10MG. The cells then were returned into the Kuhner shaker and incubated at 37° C. in a 5% CO2 atmosphere under shaking at 180 rpm. […] In short, Goat anti-human kappa light chain IgG (Biosource) was used for coating the ELISA-plates, and with AP-conjugated goat anti-human gamma chain IgG (Biosource) the synthesized IgG1 was detected. […] Absorption was measured at 405 nm against 490 nm using a microplate reader (SPECTRAmaxTM340; Molecular Devices, Palo Alto, Calif., USA).

[3] = system: HEK293E cells; experiment: Influence of temperature on IgG batch titer and comparison with sodium butyrate (Example 2); assay type: cell-based, Human; details: 3 mmol/l sodium butyrate; relative to control = 1; day 5 after transfection
Experimental: (§1) No. 14571C-[…]; Lot No. 6A0093; SAFC Biosciences, Lenexa, Kans., USA, “Ex-Cell” medium; note: “Ex-Cell” medium-as used herein-refers to a medium comprising 4 mmol/l L-glutamine) in a 50-ml filter tube each (TPP AG, Trasadingen, Switzerland; Cat. No. 87050, Lot 20050174). In a separate set, 10 million suspension-adapted CHO DG44 cells were resuspended in 0.5 ml of ProCHO5 serum-free medium with 4 mmol/[…] hypoxanthine and 0.194 g/l thymidine (BioWhittaker (Lonza), Belgium; Cat. No. BE12-[…]; Lot No. 7 MB0040; “ProCHO5” medium; note: “ProCHO5” medium-as used herein-refers to a medium comprising 4 mmol/[…] hypoxanthine and 0.194 g/l thymidine) in a 50-ml filter tube each (TPP AG, Trasadingen, Switzerland; Cat. No. 87050, Lot 20050174). Then 12.5 μg plasmid DNA at a concentration of 1 μg/μl was added in each tube with the following composition 50% (6.25 μg) p-LC (SEQ ID NO: 1) 50% (6.25 μg) p-HC (SEQ ID NO: 3). Plasmid p-LC comprises the genetic information for the production of the light chain of an IgG antibody, plasmid p-HC comprises the genetic information for the production of the heavy chain of an IgG antibody. The particular vector constructs used in the present invention can also be obtained from the inventors. The inventors can be contacted via e-mail at […]. Moreover, commercial services do exist that produce any desired nucleotide sequence even comprising several kilobase pairs including complete expression cassettes in plasmid backgrounds (e.g., Invitrogen, Carlsbad, USA; Geneart, Germany.) Thus, providing the genetic sequence information of the plasmids should enable one of ordinary skill in the art to order the plasmids of the present invention at one of the commercial services listed. After shortly mixing the DNA with the cells by gentle shaking, 25 μg of 25-kd linear polyethyleneimine (“PEI”; Polysciences, Eppelheim, Germany; [2]) were added at a concentration of 1 μg/μl to each of the tubes. After shortly mixing by gentle shaking, the filter tubes containing the cells together with the DNA and PEI were transferred into an orbital shaker (Kühner Shaker Cabinet ISF-4-W, “Kühner shaker”, Kühner AG, Birsfelden, Switzerland), and the cells were incubated for 4 hours at 37° C. in a 5% CO2 atmosphere under shaking at 180 rpm. After that time, 4.5 ml of Ex-Cell medium were added to each of the filter tubes containing HEK 293 cells and 4.5 ml of Pro-CHO5 were added to each of the filter tubes containing CHO DG44 cells. […] No. […] Sigma-Aldrich Chemie GmbH, Industriestrasse 25, CH-9471 Buchs SG) was added to the corresponding tubes at the corresponding final concentrations. The cells then were returned into the Kühner shaker. Half the tubes were incubated at 37° C. in a 5% CO2 atmosphere under shaking at 180 rpm, the other half was incubated at 31° C. […] The ELISA was performed as published in prior art. In short, Goat anti-human kappa light chain IgG (Biosource) was used for coating the ELISA-plates, and with AP-conjugated goat anti-human gamma chain IgG (Biosource) the synthesized IgG1 was detected. NPP was used as a substrate for the alkaline phosphatase. Absorption was measured at 405 nm against 490 nm using a microplate reader (SPECTRAmaxTM340; Molecular Devices, Palo Alto, Calif., USA).

[4] = system: HEK293E cells; experiment: Preferred embodiment: transient IgG expression with p18 and p21 co-transfection, batch titer by ELISA; assay type: cell-based, Human
Experimental: 20 million suspension-adapted HEK293E cells were resuspended in 1 ml of Ex-Cell 293 HEK 293 serum-free medium with 4 mmol/l L-glutamine (Cat. No. 14571C-[…]; Lot No. 6A0093; SAFC Biosciences, Lenexa, Kans., USA, “Ex-Cell” medium; note: “Ex-Cell” medium-as used herein-refers to a medium comprising 4 mmol/l L-glutamine) in a 50-ml filter tube each (TPP AG, Trasadingen, Switzerland; Cat. No. 87050, Lot 20050174). Then 50 μg plasmid DNA at a concentration of 1 μg/μl was added in each tube with the following composition […] Plasmid p-LC comprises the genetic information for the production of the light chain of an IgG antibody, plasmid p-HC comprises the genetic information for the production of the heavy chain of an IgG antibody, plasmid p-p18 comprises the genetic information for the protein p18, and plasmid p-p21 comprises the genetic information for the protein p21. The particular vector constructs used in the present invention can also be obtained from the inventors. The inventors can be contacted via e-mail at […]. Moreover, commercial services do exist that produce any desired nucleotide sequence even comprising several kilobase pairs including complete expression cassettes in plasmid backgrounds (e.g., Invitrogen, Carlsbad, USA; Geneart, Germany.) Thus, providing the genetic sequence information of the plasmids should enable one of ordinary skill in the art to order the plasmids of the present invention at one of the commercial services listed. After shortly mixing the DNA with the cells by gentle shaking, 100 μg of 25-kd linear polyethyleneimine (“PEI”; Polysciences, Eppelheim, Germany; [2]) were added at a concentration of 1 μg/μl to each of the tubes. After shortly mixing by gentle shaking, the filter tubes containing the cells together with the DNA and PEI were transferred into an orbital shaker (Kühner Shaker Cabinet ISF-4-W, “Kühner shaker”, Kühner AG, Birsfelden, Switzerland), and the cells were incubated for 3 hours at 37° C. in a 5% CO2 atmosphere under shaking at 180 rpm. After that time, 4 ml of Ex-Cell medium were added to each of the filter tubes. […] No. B5887-1G; Sigma-Aldrich Chemie GmbH, Industriestrasse 25, CH-9471 Buchs SG) was added to the corresponding tubes at the corresponding final concentrations. […] The ELISA was performed as published in prior art. In short, Goat anti-human kappa light chain IgG (Biosource) was used for coating the ELISA-plates, and with AP-conjugated goat anti-human gamma chain IgG (Biosource) the synthesized IgG1 was detected. NPP was used as a substrate for the alkaline phosphatase. Absorption was measured at 405 nm against 490 nm using a microplate reader (SPECTRAmaxTM340; Molecular Devices, Palo Alto, Calif., USA).

[5] = system: CHO DG44 cells; experiment: Influence of temperature on IgG batch titer and comparison with sodium butyrate (Example 2); assay type: cell-based, Chinese Hamster; details: 3 mmol/l sodium butyrate; relative to control = 1; day 5 after transfection
Experimental: as §1

`Nc1ncn([C@@H]2O[C@H](CO)[C@@H](O)[C@H]2O)c(=O)n1` [Azacytidine] was tested, and the “Fold increase in batch yield over control” value (“Fold increase in batch yield” below) ([1]; Azacytidine 6 μmol/l) was 160% ± 15%, the “Fold increase in batch yield” value ([2]; Azacytidine 4 μmol/l) was 160% ± 10% and the “interaction with VPA in increasing batch yield” value [2] was “act synergistically together with VPA”.

`O=C(O)C(Cc1c[nH]c2ccccc12)N1C(=O)c2ccccc2C1=O` (stereo not shown) [RG108] was tested, and the “Fold increase in batch yield” value ([1]; RG108 8 μmol/l) was 150% ± 20%, the “interaction with VPA in increasing batch yield” value [2] was “act synergistically together with VPA” and the “Fold increase in batch yield” value ([2]; RG108 60 μmol/l) was 170% ± 15%.

In the case of `CCCC(=O)[O-].[Na+]` [sodium butyrate], the “Batch titer increase at 31° C.” value [3] was 4.8 ± 0.4, the “Batch titer increase at 37° C.” value [3] was 4.8 ± 0.4 and the Batch titer ([4]; 3 mmol/l sodium butyrate, IgG with p18 and p21, day 14 after transfection) was 528 ± 42 mg/L. The “Fold increase over control” value ([4]; 3 mmol/l sodium butyrate, day 14 after transfection) was 7.2 fold, the optimal concentration ([4]; in combination with HEK293E cells) was 3 mmol/L and the “Batch titer increase at 31° C.” value [5] was 1.3 ± 0.1. The “Batch titer increase at 37° C.” value [5] was 1.9 ± 0.1.
